Test systems include 786-0 renal; ACHN renal; NCI-H460 lung; OVCAR-3 ovarian; MALME-3M melanoma; BT-549 breast; SW-620 colon; M14 melanoma; SK-MEL-2 melanoma; OVCAR-4 ovarian; CCRF-CEM leukemia; MDA-N; HOP-92 NSCLC; UO-31 renal; TK-10 renal; SF-539 CNS; MCF7 breast; RXF 393 renal; MDA-MB-435; T-47D breast.
Holding throughout (assay): growth of human tumour cells (NCI), 48 h

SMILES strings stand for the structures.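 Dose response: 5 concentrations. Exposure: 48 h. Format: 96-well plates. Endpoint: linear interpolation; highest concentration if not reached. TGI marks complete inhibition of growth.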 A value given as a limit tells only on which side of the number the result lay.

With `N=C1/C(=C/c2ccco2)C(=O)N=C2SC=NN12`, the TGI in the experiment with 786-0 renal, in the experiment on ACHN renal, in the experiment with NCI-H460 lung, in the experiment on OVCAR-3 ovarian, in the experiment with MALME-3M melanoma and with BT-549 breast was above 100 µM in each case. Moreover, the TGI in the experiment with SW-620 colon, with M14 melanoma, with SK-MEL-2 melanoma, in the experiment with OVCAR-4 ovarian, in the experiment with CCRF-CEM leukemia and in the experiment with MDA-N was above 100 µM throughout. The TGI with HOP-92 NSCLC, in the experiment on UO-31 renal, in the experiment on TK-10 renal, with SF-539 CNS, in the experiment with MCF7 breast and in the experiment with RXF 393 renal was above 100 µM in each case. The TGI in the experiment on MDA-MB-435 and in the experiment with T-47D breast was above 100 µM in each case.
In the case of `CC[C@]1(Cc2ccc(OC)c(OC)c2)C=[N+]([O-])O[C@H](OC2CCCCC2c2ccccc2)[C@@H]1OC(C)=O` (stereo not given in full), the TGI with 786-0 renal, in the experiment with ACHN renal, with NCI-H460 lung, with OVCAR-3 ovarian, in the experiment with MALME-3M melanoma and in the experiment with BT-549 breast was above 100 µM in each case. Moreover, the TGI is above 100 µM in the experiment with SW-620 colon; above 100 µM with M14 melanoma; above 100 µM in the experiment with SK-MEL-2 melanoma; above 100 µM in the experiment with OVCAR-4 ovarian; 68.3 µM in the experiment on CCRF-CEM leukemia; above 100 µM with MDA-N. The TGI with HOP-92 NSCLC was above 100 µM; in the experiment with UO-31 renal, above 100 µM; in the experiment with TK-10 renal, above 100 µM; in the experiment on MCF7 breast it was above 100 µM; in the experiment with RXF 393 renal, 94.1 µM; in the experiment with MDA-MB-435 it was above 100 µM. The molecule also displayed a TGI in the experiment on T-47D breast above 100 µM.
Turning to `CC(=O)NC1C(O)C(O)C(CO)OC1n1nc(SCc2ccccc2)c(=O)[nH]c1=O` (stereo not given), the TGI in the experiment on 786-0 renal, in the experiment with ACHN renal, in the experiment on NCI-H460 lung, in the experiment with OVCAR-3 ovarian, in the experiment with MALME-3M melanoma and in the experiment with BT-549 breast was above 100 µM each time. Also, the TGI in the experiment with SW-620 colon, with M14 melanoma, in the experiment on SK-MEL-2 melanoma, in the experiment on OVCAR-4 ovarian, in the experiment with CCRF-CEM leukemia and in the experiment with MDA-N was above 100 µM throughout. For the same molecule, the TGI in the experiment with HOP-92 NSCLC, in the experiment with UO-31 renal, with TK-10 renal, in the experiment on SF-539 CNS, in the experiment with MCF7 breast and with RXF 393 renal was above 100 µM in each case. The TGI in the experiment on MDA-MB-435 and with T-47D breast was above 100 µM throughout.
As for `COC1CC(=O)C2C(=O)N(c3ccccc3)C(=O)C23C(C(=O)c2ccccc2)=C(C)NC13O` (stereo not given), the TGI in the experiment with 786-0 renal was 5.38 µM; in the experiment with ACHN renal, 37.5 µM; in the experiment on NCI-H460 lung, 45.4 µM; in the experiment with OVCAR-3 ovarian, 8.12 µM; in the experiment on MALME-3M melanoma it was 9.96 µM; in the experiment with BT-549 breast it was above 100 µM. For the same molecule, the TGI in the experiment with SW-620 colon stood at 23 µM; in the experiment with M14 melanoma, 35.5 µM; with SK-MEL-2 melanoma, 33.6 µM; in the experiment with OVCAR-4 ovarian it was 16.6 µM; in the experiment with CCRF-CEM leukemia, 28.9 µM; in the experiment on MDA-N it was 72.2 µM. In addition, the TGI is 25.2 µM in the experiment on HOP-92 NSCLC; 40.9 µM in the experiment on UO-31 renal; 20.2 µM in the experiment on TK-10 renal; 21.8 µM in the experiment with SF-539 CNS; 16.7 µM in the experiment on MCF7 breast; 40.9 µM in the experiment with MDA-MB-435. For the same molecule, in the experiment with T-47D breast, the TGI turned out to be 14.1 µM.
In the case of `CC(=O)N(C(=O)CC(=O)NNCc1ccccc1Cl)c1ccc(Cl)cc1`, the TGI in the experiment on 786-0 renal, in the experiment on ACHN renal, in the experiment on NCI-H460 lung, in the experiment on OVCAR-3 ovarian, in the experiment with MALME-3M melanoma and in the experiment on BT-549 breast was above 10 µM each time. Also, the TGI in the experiment on M14 melanoma, in the experiment with SK-MEL-2 melanoma, in the experiment with OVCAR-4 ovarian, in the experiment on CCRF-CEM leukemia, in the experiment with MDA-N and with HOP-92 NSCLC was above 10 µM throughout. The TGI in the experiment on UO-31 renal, in the experiment on TK-10 renal, with SF-539 CNS, in the experiment with MCF7 breast, with RXF 393 renal and with MDA-MB-435 was above 10 µM each time. The molecule also gave a TGI in the experiment on T-47D breast above 10 µM.
Consider `CCOC(=O)CC[C@H](NC(=O)c1ccc(CNc2nc3cc(C(F)(F)F)ccc3nc2C(=O)OCC)cc1)C(=O)OCC`, for which the TGI with 786-0 renal was 18.8 µM; in the experiment with ACHN renal it was above 93.2 µM; with NCI-H460 lung it was 77.7 µM; with OVCAR-3 ovarian it was above 53.2 µM; with MALME-3M melanoma, 50.3 µM; in the experiment on BT-549 breast, 70.3 µM. The TGI is above 100 µM with SW-620 colon; above 66.2 µM in the experiment on M14 melanoma; above 94.1 µM with SK-MEL-2 melanoma; above 100 µM in the experiment on CCRF-CEM leukemia; above 100 µM in the experiment on MDA-N; 48.9 µM in the experiment with HOP-92 NSCLC. Also, the TGI in the experiment with UO-31 renal is 70.3 µM; in the experiment with TK-10 renal, 38.5 µM; in the experiment on SF-539 CNS it was 17.3 µM; in the experiment with MCF7 breast, above 51.9 µM; with RXF 393 renal, above 100 µM; with MDA-MB-435 it was above 100 µM. This molecule also showed a TGI in the experiment on T-47D breast of 60.8 µM.
With `O=C1CC(C(O)C(O)C(O)CO)CC(=O)N1` (stereo not given), the TGI with 786-0 renal, in the experiment on ACHN renal, with NCI-H460 lung, with OVCAR-3 ovarian, in the experiment with MALME-3M melanoma and with BT-549 breast was above 100 µM in each case. The TGI in the experiment with SW-620 colon, in the experiment on M14 melanoma, in the experiment with OVCAR-4 ovarian, with CCRF-CEM leukemia, in the experiment with MDA-N and in the experiment with HOP-92 NSCLC was above 100 µM each time. For the same molecule, the TGI in the experiment with UO-31 renal, with TK-10 renal, in the experiment on SF-539 CNS, with MCF7 breast, in the experiment on RXF 393 renal and with MDA-MB-435 was above 100 µM in each case. Moreover, the TGI with T-47D breast is above 100 µM.

These data come from PubChem BioAssay (NCI).
